Literature values, collected in patent US20070196481A1, “Sustained-release tablet composition” (priority 2002, published 2007).
Counter-ions that a name gives are not always drawn.

solubility in water | Compound
about 250 mg/ml | CCOc1ccccc1OC(c1ccccc1)C1CNCCO1 (centres unmarked) [reboxetine mesylate]
about 200 mg/ml | CCCNC1CCc2nc(N)sc2C1 (centres unmarked) [pramipexole dihydrochloride]
